The nature of series [1]: Solubilization in water or 30% PEG-8000/water, freeze-drying and reconstitution; concentration by HPLC (Example 1). Particulars: for PEG solutions, freeze dried and reconstituted Test 1 / PEG solutions, freeze dried and reconstituted Test 2: 30% PEG-8000, reconstituted with water; for PEG solutions, freeze dried and reconstituted Test 1 / PEG solutions, freeze dried and reconstituted Test 2 / CPEG / Cw: target 200 µM; for CPEG: 30% PEG-8000 / water, 50-fold dilution of 10 mM DMSO stock; for CPEG / Cw: filtered 0.45 µm; for Cw: aqueous solution, 50-fold dilution of 10 mM DMSO solution; for PEG solutions, reconstituted and diluted 1:10 Test 1 / PEG solutions, reconstituted and diluted 1:10 Test 2: diluted 1:10 with water, target 20 µM; for PEG solutions, reconstituted and diluted 1:10 Test 1: 3% PEG-8000, Test 1; for PEG solutions, reconstituted and diluted 1:10 Test 2: 3% PEG-8000, Test 2. On the procedure:
Materials and methods. […] The following compounds were obtained from Fluka - Riedel deHaën: phenylacetic acid, p-toluenesulphonamide, carbazol (Vetranal analytical standard), Polyethylene glycol 8000. Stock solutions were prepared in dimethylsulfoxide (Sigma-Aldrich, ACS spectrophotometric grade) at 10 mM concentration by weighing an appropriate amount of each compound and adding the computed DMSO volume with a calibrated variable volume pipet (Eppendorf). A solution of PEG-8000 (30%, w/w) in water in a 50 mL centrifuge tube was prepared by weighing 15.0 g of PEG-8000 and adding water up to 50.0 g.
Solutions were analysed using an Agilent 1100 chromatograph with the following HPLC method: • Column: Waters X-terra 4.6x50 mm, 3.5 µm • Mobile phase A: water/acetonitrile (97/3 by volume) containing 0.1% trifluoroacetic acid • Mobile phase B: acetonitrile containing 0.1% trifluoroacetic acid • Flow = 1 mL/min, injection = 10 µL, detection wavelength 220 nm (8 nm bandwidth) with reference at 400 nm (40 nm bandwidth). • Gradient 1: from 100% A to 60% A in 6 min, down to 40% A in 1 min, followed by 3 min re-equilibration at 100% A. • Gradient 2: from 70% A to 30% A in 6 min, 1 min isocratic elution at 30% A, followed by 3 min re-equilibration at 70% A.
The following solutions were prepared by 50-fold dilution of the DMSO stock solutions: • Target concentration: 200 µM in water • Target concentration: 200 µM in 30% PEG-8000 / water
After equilibration (1 day at room temperature), all solutions were filtered through 0.45 µm cellulose filters (ProFill, 25 mm syringe filters, Alltech). Aliquots were placed in HPLC vials and submitted to analysis. Two 1 mL aliquots of each 30% PEG solution were placed into 14x100 mm pre-weighed test tubes. These tubes were weighed, and placed in liquid nitrogen to freeze the solution, and finally submitted to freeze-drying in a Lio-5P apparatus (5Pascal, Trezzano sul Naviglio, Italy). After one day, the tubes were weighed and water was added with a micropipette in order to match the original solution weight. A fraction of these solutions was diluted 1:10 with water (target concentration: 20 µM).

The conditions of series [2]: decimal logarithm of the molar aqueous solubility; cited from earlier work.
Series [3] in a line: Solubility in various aqueous PEG media, by HPLC (Example 2). The following applies: aqueous with cosolvent or surfactant or cyclodextrin, kinetic from dmso stock, Average solubility, N=3. As to the method:
Materials and methods. […] The following compounds were obtained from Fluka - Riedel deHaën: carbazol (Vetranal analytical standard), Polyethylene glycol 8000, Polyethylene glycol 20000, Polyethylene glycol 400. […] Solutions of PEG-8000 and PEG-20000 in water (30%, w/w) were prepared in 50 mL centrifuge tubes by weighing 15.0 g of the corresponding PEG and adding water up to 50.0 g. A solution containing PEG-8000 (10%, w/w) and PEG-400 (20%, w/w) was similarly prepared by mixing 5 g PEG-8000 with […], and adding water up to 50 g.
Results. […] Starting from DMSO stock solutions, dilute solutions with a nominal concentration of 200 µM were prepared by 50-fold dilution with one of three different aqueous PEG medium. After equilibration for 1 day at room temperature, these solutions were filtered through 0.45 µm cellulose filters (ProFill, 25 mm syringe filters, Alltech). Aliquots were placed in HPLC vials and submitted to analysis.

These results are taken from patent EP1908513A1, “Method for preparing and using chemical collections” (priority 2006, dated 2008).

Converted amounts (≈) assume the structure as drawn.

As usually defined, the solubility is the concentration that dissolves in the medium under given conditions.

With `O=C(O)Cc1ccccc1` [Compound 1, Phenylacetic acid], in series [1], the “PEG solutions, freeze dried and reconstituted Test 1” value is 181 µM; the “PEG solutions, freeze dried and reconstituted Test 2” value is given as 187 µM; the CPEG is 198 µM; the Cw worked out at 200 µM. Further, in series [1], the “PEG solutions, reconstituted and diluted 1:10 Test 1” value came to 17.7 µM; the “PEG solutions, reconstituted and diluted 1:10 Test 2” value is recorded as 17.8 µM. Further, the LogSw in series [2] was -0.89.
On to `Cc1ccc(S(N)(=O)=O)cc1` [Compound 2, p-Toluenesulphonamide], for which the LogSw in series [2] is -1.74.
`CCOC(=O)c1ccc(O)cc1` [Compound 3, Ethyl-p-hydroxybenzoate]: in series [2], the LogSw was -2.35.
On to `CC(=O)CC(c1ccccc1)c1c(O)c2ccccc2oc1=O` (stereo not drawn) [Compound 6, Warfarin], for which, in series [1], the “PEG solutions, freeze dried and reconstituted Test 1” value is given as 199 µM; the “PEG solutions, freeze dried and reconstituted Test 2” value is 199 µM; the CPEG was found to be 198 µM; the Cw was 155 µM. In series [1], the “PEG solutions, reconstituted and diluted 1:10 Test 1” value amounted to 20.2 µM; the “PEG solutions, reconstituted and diluted 1:10 Test 2” value is reported as 20.4 µM. For the same compound, the LogSw in series [2] is -4.26.
Consider `c1ccc2c(c1)[nH]c1ccccc12` [Compound 8, Carbazol], for which the solubility at 1 day in series [3] (20% PEG-400 + 10% PEG-8000, nominal 200 µM) was found to be 187 µM. Moreover, the solubility at 1 day in series [3] (30% PEG-8000, nominal 200 µM) came to 194 µM (≈ 32.4 µg/mL). The compound also gave a solubility at 1 day in series [3] (30% PEG-20000, nominal 200 µM) of 188 µM (≈ 31.4 µg/mL). In series [1] (3% PEG-8000, range over both tests and both compounds), the “measured concentration after ten-fold dilution of the reconstituted PEG lyophilized samples” value was in the range of 19.0 to 19.4 µM. Also, in series [1], the “PEG solutions, freeze dried and reconstituted Test 1” value was 195 µM; the “PEG solutions, freeze dried and reconstituted Test 2” value turned out to be 195 µM; the CPEG came to 196 µM; the Cw was 8.6 µM. For the same compound, in series [1], the “PEG solutions, reconstituted and diluted 1:10 Test 1” value is given as 19.0 µM; the “PEG solutions, reconstituted and diluted 1:10 Test 2” value is given as 19.2 µM. The LogSw in series [2] is on record as -5.27.
